Reference: patent US20230250096A1, “SUBSTITUTED PHENYL-1H-PYRROLO[2,3-c] PYRIDINE DERIVATIVES” (Janssen Pharmaceutica NV, priority 2021, published 2023)

What was measured:
KO-52 cells = experiment: Proliferation assay (spheroid confluence, 8 days), KO-52 control cell line; format: cell-based, human; conditions: Homo sapiens, read-out: spheroid assay_KO-52 IC50
Protocol: (§1) The anti-proliferative effect of menin/MLL protein/protein interaction inhibitor test compounds was assessed in human leukemia cell lines. The cell line MOLM14 harbors a MLL translocation and expresses the MLL fusion protein MLL-AF9, respectively, as well as the wildtype protein from the second allele. OCI-AML3 cells that carry the NPM1c gene mutation were also tested. […] KO-52 was used as a control cell line containing two MLL (KMT2A) wildtype alleles in order to exclude compounds that display general cytotoxic effects.
(§2) MOLM14 cells were cultured in RPMI-1640 (Sigma Aldrich) supplemented with 10% heat-inactivated fetal bovine serum (HyClone), 2 mM L-glutamine (Sigma Aldrich) and 50 μg/ml gentamycin (Gibco). KO-52 and OCI-AML3 cell lines were propagated in alpha-MEM (Sigma Aldrich) supplemented with 20% heat-inactivated fetal bovine serum (HyClone), 2 mM L-glutamine (Sigma Aldrich) and 50 μg/ml gentamycin (Gibco).
(§3) In order to assess the anti-proliferative effects, 200 MOLM14 cells, 200 OCI-AML3 cells or 300 KO-52 cells were seeded in 200 μl media per well in 96-well round bottom, ultra-low attachment plates (Costar, catalogue number 7007). Cell seeding numbers were chosen based on growth curves to ensure linear growth throughout the experiment. Test compounds were added at different concentrations and the DMSO content was normalized to 0.3%. Cells were incubated for 8 days at 37° C. and 5% CO2. Spheroid like growth was measured in real-time by live-cell imaging (IncuCyteZOOM, Essenbio, 4×objective) acquiring images at day 8. Confluence (%) as a measure of spheroid size was determined using an integrated analysis tool.
(§4) In order to determine the effect of the test compounds over time, the confluence in each well as a measure of spheroid size, was calculated. Confluence of the highest dose of a reference compound was used as baseline for the LC (Low control) and the confluence of DMSO treated cells was used as 0% cytotoxicity (High Control, HC).
(§5) Absolute IC50 values were calculated as percent change in confluence as follows:
(§6) LC=Low Control: cells treated with e.g. 1 μM of the cytotoxic agent staurosporin, or e.g. cells treated with a high concentration of an alternative reference compound
(§7) HC=High Control: Mean confluence (%) (DMSO treated cells)
(§8) % Effect=100−(100*(Sample−LC)/(HC−LC))
(§9) GraphPad Prism (version 7.00) was used to calculate the IC50. Dose-response equation was used for the plot of % Effect vs Log10 compound concentration with a variable slope and fixing the maximum to 100% and the minimum to 0%.

[1] = target: T1, menin/MLL (terbium chelate-labeled menin, FITC-MBM1 peptide) (Homo sapiens, UniProt O00255, T541A); experiment: Menin/MLL homogenous time-resolved fluorescence (HTRF) assay; format: binding; conditions: 30 min incubation
T1 construct: Menin (a.a 1-610-6xhis tag, 2.3 mg/mL in 20 mM Hepes)
T1 sequence (O00255 with tags, fused parts or gaps T541A): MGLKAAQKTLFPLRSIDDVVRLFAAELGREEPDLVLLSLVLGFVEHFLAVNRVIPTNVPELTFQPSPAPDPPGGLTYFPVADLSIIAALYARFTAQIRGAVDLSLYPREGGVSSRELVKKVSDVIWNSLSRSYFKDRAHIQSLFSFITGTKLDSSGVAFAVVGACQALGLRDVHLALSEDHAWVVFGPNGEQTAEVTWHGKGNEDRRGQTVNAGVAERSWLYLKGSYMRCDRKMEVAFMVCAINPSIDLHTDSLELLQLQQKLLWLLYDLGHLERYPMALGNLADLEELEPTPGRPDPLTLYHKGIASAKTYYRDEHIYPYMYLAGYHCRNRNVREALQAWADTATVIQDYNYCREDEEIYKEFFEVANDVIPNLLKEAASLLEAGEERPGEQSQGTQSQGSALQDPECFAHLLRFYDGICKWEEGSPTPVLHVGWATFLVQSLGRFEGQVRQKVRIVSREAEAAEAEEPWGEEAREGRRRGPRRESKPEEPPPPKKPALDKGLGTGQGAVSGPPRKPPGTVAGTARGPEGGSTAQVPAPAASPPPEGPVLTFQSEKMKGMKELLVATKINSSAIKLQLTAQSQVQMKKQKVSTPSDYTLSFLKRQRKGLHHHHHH
Summary of the method: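 Terbium-labeled menin (a.a. 1-610, His-tagged; […]) pre-incubated 30 min with compound, then 75 nM FITC-MBM1 peptide added for 15 min at ambient temperature in Tris pH 7.5 buffer, 0.5% DMSO. HTRF 520/490 nm ratio read; IC50 from 11-point four-fold titrations, typically from 10 μM.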

OCI-AML3 cells = experiment: Proliferation assay (spheroid confluence, 8 days), OCI-AML3; format: cell-based, human; conditions: Homo sapiens, OCI-AML-3, OCI-AML3; read-out: spheroid assay_OCI-AML3 IC50
Protocol: as §1, §2, §3, §4, §5, §6, §7, §8, §9

[2] = Dynamic vapor sorption (DVS) moisture sorption analysis; format: physicochemical
Protocol: Dynamic Vapor Sorption (DVS)
The moisture sorption analysis (DVS) was performed using a ProUmid GmbH & Co. KG Vsorp Enhanced dynamic vapor sorption apparatus. The moisture profile was evaluated by monitoring vapor adsorption/desorption over the range of 0 to 90% relative humidity at 25° C. The sample weight equilibrium criteria were set at <0.01% change in 45 min with minimum and maximum time of acclimation at 50 min and 120 min, respectively. The moisture profile consisted of 2 cycles of vapor adsorption/desorption.
In the humidity range of 20-90% RH, the crystalline form adsorbs and desorbs moisture slowly and reversibly up to 2.5% by mass on average. Based on DVS, the crystalline HCl salt Form, at equilibrium, can contain around 3 equivalents of water (8.5-9.5% total moisture mass) at common ambient RH of 40% to 75%.

[3] = common ambient RH of 40% to 75%

| IC50 (OCI-AML3 cells) [nM] | SMILES | IC50 (KO-52 cells) [nM] | IC50 [1] [nM] | hygroscopicity of the crystalline form (DVS change in mass plot) ([2]; 0 to 90% relative humidity, 25° C., 2 cycles of adsorption/desorption) | solid-state form change after the DVS test (XRPD compared with the starting material) ([2]; XRPD of the fraction obtained after DVS) | dehydration behaviour at low relative humidity ([2]; below 10% RH, to complete dehydrated state at 0% RH) | total moisture mass at equilibrium [2, 3] | water content at equilibrium [2, 3] | moisture adsorbed and desorbed (slowly and reversibly), on average ([2]; humidity range of 20-90% RH, 25° C.) |
| --- | --- | --- | --- | --- | --- | --- | --- | --- | --- |
| 8 | CNC(=O)N1CCC(CN2CC[C@H](Cc3cn(-c4ccc(F)cc4C(=O)N(C)C(C)C)c4cncc(C)c34)C2)CC1 (single isomer, unassigned) [Compound 101] | 3100 | 0.041 |  |  |  |  |  |  |
|  | CC(=O)N1CCC(CN2CC[C@@H](Cc3cn(-c4ccc(F)cc4C(=O)N(C)C(C)C)c4cncc(C)c34)C2)CC1.Cl [Compound 51a] |  | 0.024 | hygroscopic | No indication of a solid-state form change was observed | dehydrates rapidly | 8.5-9.5% | around 3 equivalents of water | up to 2.5 % by mass |
